Source: US20160349242A1, “PLATFORM TECHNOLOGIES FOR SPONTANEOUSLY OCCURRING DISEASES” (Oatmeal Biotechnologies Group, LLC, priority 2009, published 2016)
Where two headings read alike, the source gives them in different places. Square brackets hold non-standard residues; d marks the D form. Peptide text beside a SMILES is read from it. d(aIle) = CC[C@H](C)[C@@H](N)C(=O)O; Nva = CCC[C@H](N)C(=O)O; Sar = CNCC(=O)O

Assays:
[1] = system: circulating neutrophil counts; details: immunosuppressive doses; cited from earlier work
MSC = details: in vivo; cited from earlier work
Canine TCC = details: dog, in vivo; cited from earlier work
NHL = details: cited from earlier work
canine MGT = details: dog, in vivo; cited from earlier work
canine osteosarcoma = details: non-metastatic dogs, cisplatin followed by L-MTP-PE or placebo; cited from earlier work
first-relapse NHL = details: with lomustine vs lomustine and placebo; cited from earlier work
[2] = system: spontaneous canine tumors; details: dog, in vivo; cited from earlier work
tumor growth = details: mouse, in vivo; cited from earlier work
soft tissue sarcoma [3] = details: cited from earlier work
[4] = system: canine soft tissue sarcoma; details: bleomycin and electric pulses; cited from earlier work
cultured cells = details: cited from earlier work
soft tissue sarcoma [5] = details: intralesional, biphasic electric pulses; cited from earlier work
[6] = system: soft tissue sarcoma (STS) or malignant histiocytosis (MH); details: dog, in vivo
Protocol: Depletion of MSC is accomplished by i.v. administration of LC, which is prepared as described for treatment of dogs with malignant histiocytosis (34). The LC is administered once every 2 weeks by slow i.v. infusion over 60 minutes, at a dose of 0.5 ml/kg.

high-grade osteosarcoma = details: added to doxorubicin, cisplatin and high-dose methotrexate; cited from earlier work

C[C@]12C=CC(=O)C=C1CC[C@@H]1[C@@H]2C(=O)C[C@@]2(C)[C@H]1CC[C@]2(O)C(=O)CO [prednisone]
time to rebound in circulating neutrophil counts [1]: 48 to 72 h

CC1=C(/C=C/C(C)=C/C=C/C(C)=C/C(=O)O)C(C)(C)CCC1 [ATRA, all-trans retinoic acid]
spontaneous anti-tumor immunity (MSC): improved
vaccine responses (MSC): significantly enhanced

CN1C(C(=O)Nc2ccccn2)=C(O)c2ccccc2S1(=O)=O [piroxicam]
objective response rate (Canine TCC): 18%

Cc1ncc(CO)c(CO)c1O [pyridoxine]
relative risk of developing PPES, placebo group versus pyridoxine (NHL; daily Doxil with oral pyridoxine or placebo): 4.2 times
PPES symptoms (NHL; dog, in vivo): delayed and lessened the symptoms
remission rates between treatment groups (NHL; dog, in vivo): No difference

COc1cccc2c1C(=O)c1c(O)c3c(c(O)c1C2=O)C[C@@](O)(C(=O)CO)C[C@@H]3O[C@H]1C[C@H](N)[C@H](O)[C@H](C)O1 [doxorubicin]
anti-tumor activity (canine MGT): a few partial responses

N.N.[Cl][Pt][Cl] [cisplatin]
median survival time (canine osteosarcoma): 9.8 months

CC/C(=C(\c1ccccc1)c1ccc(OCCN(C)C)cc1)c1ccccc1 [tamoxifen]
anti-tumor activity (canine MGT): does not have demonstrable anti-tumor activity

CCC[C@H](NC(=O)[C@@H](NC(=O)[C@H](NC(=O)[C@@H](NC(=O)CNC(=O)CN(C)C(C)=O)C(C)C)[C@@H](C)CC)[C@@H](C)O)C(=O)N[C@H](C(=O)N[C@@H](CCCNC(=N)N)C(=O)N1CCC[C@H]1C(=O)NCC)[C@@H](C)CC [ABT-526] (Ac-[Sar]GV[d(aIle)]T[Nva]IRP-NHEt)
duration of response (first-relapse NHL): modestly enhanced
number of cases responding to chemotherapy (first-relapse NHL): did not increase
relative activity [2]: more active than ABT-510
tumor growth (tumor growth): slow tumor growth

bleomycin
average time of recurrence (soft tissue sarcoma [3]; intraoperative bleomycin with electrotherapy): 12 months
average time of recurrence (soft tissue sarcoma [3]; postoperative bleomycin with electrotherapy): 19 months
median time to recurrence [4]: 730 days
response rate [4]: 95%
internalized fraction (cultured cells): < 0.1%
long term remissions (soft tissue sarcoma [5]): 40%
overall response rate (soft tissue sarcoma [5]): 80%

liposomal clodronate [LC]
tolerability [6]: well-tolerated

O=P1(NCCCl)OCCCN1CCCl (stereo not drawn) [ifosfamide]
drug free survival (DFS) (high-grade osteosarcoma): did not significantly improve
overall survival (OS) (high-grade osteosarcoma): did not significantly improve
